Patent US11098336B2, “Biosynthesis of bioorthogonal amino acids” (The Regents of the University of California, priority 2017, dated 2021)

Tests used:
[1] = target: BesD from S. cattleya (Streptantibioticus cattleyicolor, UniProt G8XHD5); experiment: BesD enzyme-coupled assay that reports on succinate production; format: biochemical, Streptomyces cattleya
Text: Activity of BesD from S. cattleya on L-lysine was first screened using an enzyme-coupled assay that reports on succinate production.

[2] = target: T1, BesB (Streptantibioticus cattleyicolor, UniProt G8XHD7); experiment: BesB terminal-alkyne (Pra) formation in vitro; isomerization, D2O exchange and PLP-conjugate trapping; format: biochemical, Streptomyces cattleya; conditions: for binding to BesB as PLP-conjugate: chemical reduction with imine-reducing reagents; for formation of Pra by BesB from substrate: in vitro
T1 construct: made in house
T1 sequence (G8XHD7 whole entry): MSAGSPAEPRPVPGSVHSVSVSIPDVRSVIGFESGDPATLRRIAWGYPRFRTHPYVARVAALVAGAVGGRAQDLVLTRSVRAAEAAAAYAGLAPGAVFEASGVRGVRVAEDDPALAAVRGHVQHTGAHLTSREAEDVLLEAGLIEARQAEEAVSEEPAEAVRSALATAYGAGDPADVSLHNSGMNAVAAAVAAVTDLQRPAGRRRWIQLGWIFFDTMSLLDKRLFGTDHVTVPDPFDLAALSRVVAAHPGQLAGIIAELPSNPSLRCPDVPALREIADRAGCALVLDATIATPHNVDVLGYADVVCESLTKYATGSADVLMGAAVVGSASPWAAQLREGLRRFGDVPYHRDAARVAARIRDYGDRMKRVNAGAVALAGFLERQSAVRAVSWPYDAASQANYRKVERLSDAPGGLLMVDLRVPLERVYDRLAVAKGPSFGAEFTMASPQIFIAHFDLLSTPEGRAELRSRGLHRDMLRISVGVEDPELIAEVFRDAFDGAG
Protocol: We next turned our attention to formation of the terminal-alkyne. BesB belongs to a family of proteins that utilize pyrodoxyal-5′-phosphate (PLP) as cofactor. Incubating purified BesD, BesC, and BesB in the presence of iron, ascorbate, lysine, and PLP was sufficient to produce Pra in vitro. This order of events is […] to how terminal-alkynes are synthesized chemically, since biosynthesis of Pra involves elimination of an alkyl-halide to a terminal-alkyne. Terminal desaturations have previously only been observed on fatty acids and catalyzed by O2/di-iron dependent fatty acid desaturases. […] From in vitro characterization, we also found it was necessary for the amino acid substrate to be halogenated at the Cγ position.
(§1) While formation of allene-quinonoid can be mechanistically explained, there is no precedence of an enzyme catalyzed allene-alkyne isomerization. One possibility is that BesB forms α-allenyl-glycine enzymatically and isomerization occurs after α-allenyl-glycine is released from PLP. […] Another possibility is BesB produces and releases α-allenyl-glycine, and is subsequently enzymatically isomerized. […] Finally, we explored the possibility of α-allenyl-glycine binding to BesB as a PLP-conjugate by chemically reducing the whole complex with imine-reducing reagents.

[3] = spontaneous isomerization of free α-allenyl-glycine in buffered solution / D2O; format: physicochemical
Text: as §1

[4] = target: BesA (Streptantibioticus cattleyicolor, UniProt G8XHD8); experiment: BesA dipeptide formation in vitro with glutamate and ATP, substrate specificity; format: biochemical, Streptomyces cattleya; conditions: for activity as BesA substrate (ligation to glutamate): reacted with glutamate, ATP
Sequence of BesA (G8XHD8 whole entry): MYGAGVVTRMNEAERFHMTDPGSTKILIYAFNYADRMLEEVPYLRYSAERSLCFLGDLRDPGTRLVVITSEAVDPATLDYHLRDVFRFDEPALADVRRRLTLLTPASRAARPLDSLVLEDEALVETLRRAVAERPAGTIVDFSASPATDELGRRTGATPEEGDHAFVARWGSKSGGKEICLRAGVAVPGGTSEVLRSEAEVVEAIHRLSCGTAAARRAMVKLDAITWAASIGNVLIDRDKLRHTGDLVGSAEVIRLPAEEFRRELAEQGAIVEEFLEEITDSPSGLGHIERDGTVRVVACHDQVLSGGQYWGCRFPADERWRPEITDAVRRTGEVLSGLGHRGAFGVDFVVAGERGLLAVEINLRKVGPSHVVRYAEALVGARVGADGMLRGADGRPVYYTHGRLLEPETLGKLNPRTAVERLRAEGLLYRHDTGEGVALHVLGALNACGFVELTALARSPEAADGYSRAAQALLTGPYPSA
Text: We then explored the specifity of BesA by reacting glutamate with norvaline, allylglycine, and the remaining 19 canonical amino acids.
BesA shares homology to carboxylate-amine ligases, which form amides between amines and carboxylates through an ATP-dependent mechanism.

[5] = target: BesE (Streptantibioticus cattleyicolor, UniProt F8JJ27); experiment: BesE hydroxylation in vitro in the presence of ascorbate and α-KG; format: biochemical, Streptomyces cattleya
Sequence of BesE (F8JJ27 whole entry, the tested form may be a part): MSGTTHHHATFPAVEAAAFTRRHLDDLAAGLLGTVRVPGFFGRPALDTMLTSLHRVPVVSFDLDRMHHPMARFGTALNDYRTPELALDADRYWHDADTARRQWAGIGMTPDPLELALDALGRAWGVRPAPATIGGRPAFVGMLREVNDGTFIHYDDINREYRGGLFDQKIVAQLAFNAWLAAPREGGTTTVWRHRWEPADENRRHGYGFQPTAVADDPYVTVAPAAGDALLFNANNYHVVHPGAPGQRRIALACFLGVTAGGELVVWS
Text: Knockout strain of putative amino acid hydroxylase, BesE, was only capable of producing Pra. […] This lead us to believe that there might be an amino acid carrier that serves as the true substrate for BesE. Through comparative metabolomics, we were able to identify a metabolite enriched in S. cattleya ΔbesE over wildtype. This compound was also present, but at low concentration, in S. cattleya ΔbesA. We identified this compound as having mass consistent with a Pra-Glu dipeptide. When this compound was fragmented we were able to detect characteristic fragments consistent with an amide bond cleavage, supporting evidence that this compound is a Pra-Glu dipeptide.
The last dedicated enzyme involved in the biosynthesis of βes is BesE. Once we had identified Pra-Glu as the product of BesA, it became apparent that the true substrate of BesE is a Pra-Glu dipeptide. S. cattleya ΔbesB, ΔbesC, ΔbesD, and ΔbesE were unable to produce measurable amounts of the dipeptides in vivo. In comparison, ΔbesA was still able to produce βes-Glu but at lower titers when compared to S. cattleya wildtype.

[6] = tested on: cystathionine-γ-lyase; conditions: previously identified; cited from earlier work
[7] = target: T2, BesC (Streptantibioticus cattleyicolor, UniProt F8JJ25); experiment: BesC coupled reaction with BesD, cofactors and lysine; format: biochemical, Streptomyces cattleya; conditions: cofactors
T2 construct: made in house
T2 sequence (F8JJ25 whole entry): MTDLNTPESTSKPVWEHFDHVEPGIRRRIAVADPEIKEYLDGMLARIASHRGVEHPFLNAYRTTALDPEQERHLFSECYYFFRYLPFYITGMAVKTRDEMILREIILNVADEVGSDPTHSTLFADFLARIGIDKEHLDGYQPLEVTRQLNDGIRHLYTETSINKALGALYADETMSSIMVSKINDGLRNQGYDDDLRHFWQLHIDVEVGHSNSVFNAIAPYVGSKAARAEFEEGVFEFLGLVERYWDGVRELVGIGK
Text: To further characterize BesC, we then tested the ability of BesC to produce 4-Cl-allygllycine in vitro. Addition of Fe(II) to purified apo-enzyme supports the observed reaction, while omission of Fe(II) results in no reaction, supporting the Fe-dependence of the enzyme.

Sequence of BesD from S. cattleya (G8XHD5 whole entry): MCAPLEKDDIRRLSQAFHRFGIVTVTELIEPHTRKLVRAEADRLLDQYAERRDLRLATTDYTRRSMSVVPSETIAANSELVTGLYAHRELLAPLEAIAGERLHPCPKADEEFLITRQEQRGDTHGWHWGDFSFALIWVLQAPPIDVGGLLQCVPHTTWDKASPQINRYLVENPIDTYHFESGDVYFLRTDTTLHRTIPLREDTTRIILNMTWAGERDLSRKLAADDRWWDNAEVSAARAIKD

N=C(N)NCCC[C@H](N)C(=O)O [arginine]
BesD activity with substrate (rate of NADH production) [1]: no activity

C=C=CC(N)C(=O)O (stereo not drawn) [α-allenyl-glycine, reference compound]
binding to BesB as PLP-conjugate [2]: unable to bind BesB
D2O exchange in the presence of BesB ([2]; incubated with BesB in D2O): neglible D2O exchange
isomerization by BesB ([2]; incubated with BesB in D2O): no isomerization
spontaneous formation of Pra ([3]; buffered solution, 24 h, room temperature): did not produce detectable amounts of Pra
exchange with solvent ([3]; incubated in D2O, no enzyme): negligible exchange

C#CCC(N)C(=O)O (stereo not shown) [Pra, propargylglycine]
binding to BesB as PLP-conjugate [2]: able to observe Pra as a PLP bound species
Km for Pra relative to Km for Cys ([4]; BesA substrate): 10 fold lower
kcat, Pra compared with Cys ([4]; BesA substrate): comparable
activity as BesA substrate (ligation to glutamate) [4]: measurable activity
reaction with BesE (hydroxylation) [5]: no reaction was observed
inhibition of PLP proteins including cystathionine-γ-lyase [6]: mechanistic, suicide inhibitor

C=CCC(N)C(=O)O (stereo not shown) [allylglycine]
formation of Pra by BesB from substrate [2]: not when allylglycine is a substrate
activity as BesA substrate (ligation to glutamate) [4]: Pra and Cys were the only two amino acids to show any measurable activity

NCCCC[C@H](N)C(=O)O [L-lysine]
accepted as BesC substrate [7]: accepts lysine as a substrate directly to form allylglycine
BesD activity with substrate (rate of NADH production) [1]: greatest

C#CC[C@H](NC(=O)CC[C@H](N)C(=O)O)C(=O)O [Glu-Pra dipeptide, γ-Glu-α-Pra]
reaction with BesE (hydroxylation) [5]: able to hydroxylate

C=C(Cl)CC(N)C(=O)O (stereo not shown) [4-Cl-allylglycine]
formation of Pra by BesB from substrate [2]: able to form Pra

C=C(Br)CC(N)C(=O)O (stereo not shown) [4-Br-allylglycine]
formation of Pra by BesB from substrate [2]: able to form Pra

N[C@@H](CS)C(=O)O [Cys, cysteine]
activity as BesA substrate (ligation to glutamate) [4]: measurable activity

CCC[C@H](N)C(=O)O [norvaline]
BesD activity with substrate (rate of NADH production) [1]: no activity
activity as BesA substrate (ligation to glutamate) [4]: Pra and Cys were the only two amino acids to show any measurable activity
